Common to all, as to type: in vivo
The test system of assay [1] is MOOVA = Monochoria vaginalis. The experiment in a line: Herbicidal activity in transplanted paddy rice, Monochoria vaginalis. The following applies: Pontederia vaginalis, 480 h, water-injected paddy, after 20-22 days; for pest or weed control at 17.5 g/ha: 17.5 g ai/ha; for pest or weed control at 140 g/ha: 140 g ai/ha; for pest or weed control at 35 g/ha: 35 g ai/ha; for pest or weed control at 70 g/ha: 70 g ai/ha. How it is done: (§1) Weed seeds or nutlets of the desired test plant species were planted in puddled soil (mud) prepared by mixing a non-sterilized mineral soil (28 percent silt, 18 percent clay, and 54 percent sand, with a pH of about 7.3 to 7.8 and an organic matter content of about 1.0 percent) and water at a ratio of 100 kg of soil to 19 L of water. The prepared mud was dispensed in 250 mL aliquots into 480 mL non-perforated plastic pots with a surface area of 91.6 square centimeters leaving a headspace of 3 centimeters in each pot. Rice seeds were planted in Sun Gro MetroMix® 306 planting mixture, which typically has a pH of 6.0 to 6.8 and an organic matter content of about 30 percent, in plastic plug trays. Seedlings at the second or third leaf stage of growth were transplanted into 650 mL of mud contained in 960 mL non-perforated plastic pots with a surface area of 91.6 square centimeters 4 days prior to herbicide application. The paddy was created by filling the 3 centimeter headspace of the pots with water. When required to ensure good germination and healthy plants, a fungicide treatment and/or other chemical or physical treatment was applied. The plants were grown for 4-14 days in a greenhouse with an approximate 14 hour photoperiod which was maintained at about 29° C. during the day and 26° C. during the night. Nutrients were added as Osmocote (17:6:10, N:P:K+minor nutrients) at 2 g (grams) per cup. Water was added on a regular basis to maintain the paddy flood, and supplemental lighting was provided with overhead metal halide 1000-Watt lamps as necessary. The plants were employed for testing when they reached the second or third true leaf stage. A weighed amount, determined by the highest rate to be tested, of each test compound was placed in a 120 mL glass vial and was dissolved in 20 mL of acetone to obtain concentrated stock solutions. […] The concentrated stock solutions obtained were diluted with 20 mL of an aqueous mixture containing 0.01% Tween 20 (v/v). Application rates of ½×, ¼×, ⅛× and 1/16× of the high rate were obtained by injecting an appropriate amount of the stock solution into the aqueous layer of the paddy. Control plants were treated in the same manner with the solvent blank. The treated plants and control plants were placed in a greenhouse as described above and water was added as needed to maintain a paddy flood. After 20-22 days, the condition of the test plants as compared with that of the untreated plants was determined visually and scored on a scale of 0 to 100 percent where 0 corresponds to no injury and 100 corresponds to complete kill.

A further assay has as its system VERPE = Veronica persica. The experiment in a line: Postemergence herbicidal activity in cereal crops, Veronica persica. The note with it: post-emergence, 480 h, post-emergent, after 20-22 days; for pest or weed control at 70 g/ha: 70 g ai/ha; for pest or weed control at 35 g/ha: 35 g ai/ha; for pest or weed control at 17.5 g/ha: 17.5 g ai/ha. How it is done:
(§2) Seeds of the desired test plant species were planted in Sun Gro MetroMix® 306 planting mixture, which typically has a pH of 6.0 to 6.8 and an organic matter content of about 30 percent, in plastic pots with a surface area of 103.2 square centimeters. When required to ensure good germination and healthy plants, a fungicide treatment and/or other chemical or physical treatment was applied. The plants were grown for 7-36 days in a greenhouse with an approximate 14 hour photoperiod which was maintained at about 18° C. during the day and 17° C. during the night. Nutrients and water were added on a regular basis and supplemental lighting was provided with overhead metal halide 1000-Watt lamps as necessary. The plants were employed for testing when they reached the second or third true leaf stage.
(§3) A weighed amount, determined by the highest rate to be tested, of each test compound was placed in a 25 mL glass vial and was dissolved in 8 mL of a 97:3 v/v mixture of acetone and DMSO to obtain concentrated stock solutions. […] The concentrated stock solutions obtained were diluted with 16 mL of an aqueous mixture containing acetone, water, isopropyl alcohol, DMSO, Agri-dex crop oil concentrate, and Triton X-77 surfactant in a 64.7:26.0:6.7:2.0:0.7:0.01 v/v ratio to obtain spray solutions containing the highest application rates. Additional application rates were obtained by serial dilution of 12 mL of the high rate solution into a solution containing 4 mL of 97:3 v/v mixture of acetone and DMSO and 8 mL of an aqueous mixture containing acetone, water, isopropyl alcohol, DMSO, Agri-dex crop oil concentrate, and Triton X-77 surfactant in a 48.5:39.0:10.0:1.5:1.0:0.02 v/v ratio to obtain ½×, ¼×, ⅛× and 1/16× rates of the high rate. Compound requirements are based upon a 12 mL application volume at a rate of 187 L/ha. Formulated compounds were applied to the plant material with an overhead Mandel track sprayer equipped with a 8002E nozzles calibrated to deliver 187 L/ha over an application area of 0.503 square meters at a spray height of 18 inches (43 cm) above average plant canopy height. Control plants were sprayed in the same manner with the blank.
(§4) The treated plants and control plants were placed in a greenhouse as described above and watered by sub-irrigation to prevent wash-off of the test compounds. After 20-22 days, the condition of the test plants as compared with that of the untreated plants was determined visually and scored on a scale of 0 to 100 percent where 0 corresponds to no injury and 100 corresponds to complete kill.

The test system of assay [2] is TRZAS = wheat (Triticum aestivum). As to the kind of experiment: Postemergence herbicidal activity in cereal crops, wheat. The following applies: post-emergence, 480 h, post-emergent, wheat (crop), after 20-22 days; for pest or weed control at 70 g/ha: 70 g ai/ha; for pest or weed control at 35 g/ha: 35 g ai/ha; for pest or weed control at 17.5 g/ha: 17.5 g ai/ha. As for the experimental part: as §2, §3, §4

For assay [3], the system named is SCPJU = Scirpus juncoides. The experiment in a line: Herbicidal activity in transplanted paddy rice, Scirpus juncoides. The note with it: Schoenoplectiella juncoides, 480 h, water-injected paddy, after 20-22 days; for pest or weed control at 140 g/ha: 140 g ai/ha; for pest or weed control at 35 g/ha: 35 g ai/ha; for pest or weed control at 70 g/ha: 70 g ai/ha; for pest or weed control at 17.5 g/ha: 17.5 g ai/ha. As for the experimental part:
as §1

SMILES strings stand for the structures.

Take `COC(=O)c1nc(-c2ccc(Cl)c(OC)c2Cl)nc(N)c1Cl` [Compound 6, 6-Amino-5-chloro-2-(2,4-dichloro-3-methoxyphenyl)pyrimidine-4-carboxylic acid methyl ester]: the pest or weed control at 17.5 g/ha in assay [1] came to 100%. Besides, the pest or weed control at 70 g/ha in the assay with VERPE = Veronica persica stood at 99%; in assay [2], 10%.

On to `COC(=O)c1nc(-c2ccc(Cl)c(OCC(F)F)c2F)nc(N)c1Cl` [Compound 10, 6-Amino-5-chloro-2-[4-chloro-3-(2,2-difluoroethoxy)-2-fluorophenyl]-pyrimidine-4-carboxylic acid methyl ester], for which the pest or weed control at 140 g/ha in assay [1] is 100%; in assay [3], 40%. Further, the pest or weed control at 70 g/ha in the assay on VERPE = Veronica persica was 20%; in assay [2], 5%.

In the case of `COC(=O)c1nc(-c2ccc(Cl)c(N(C)C)c2F)nc(N)c1Cl` [Compound 8, 6-Amino-5-chloro-2-(4-chloro-3-dimethylamino-2-fluorophenyl)pyrimidine-4-carboxylic acid methyl ester], the pest or weed control at 35 g/ha in assay [1] was found to be 100%; with VERPE = Veronica persica it was 95%; in assay [3], 10%; in assay [2] it was 15%.

Turning to `COC(=O)c1nc(-c2c(F)cc(Cl)c(OC)c2F)nc(N)c1Cl` [Compound 2, 6-amino-5-chloro-2-(4-chloro-2,6-difluoro-3-methoxy-phenyl)pyrimidine-4-carboxylic acid methyl ester], the pest or weed control at 70 g/ha in assay [1] was 100%; in assay [3] it was 20%. Besides, the pest or weed control at 35 g/ha is 50% in the assay on VERPE = Veronica persica and 0% in assay [2].

Turning to `COC(=O)c1nc(-c2ccc3c(c2F)OCO3)nc(N)c1Cl` [Compound 9, 6-Amino-5-chloro-2-(4-fluorobenzo[1,3]dioxol-5-yl)pyrimidine-4-carboxylic acid methyl ester], the figures for the pest or weed control at 35 g/ha in assay [1] and in assay [3] were 99% and 70%, respectively. In addition, the pest or weed control at 70 g/ha was determined as 30% with VERPE = Veronica persica and 15% in assay [2].

As to `COC(=O)c1nc(-c2ccc(Cl)c(OC)c2F)nc(N)c1Cl` [Compound 3, 6-amino-5-chloro-2-(4-chloro-2-fluoro-3-methoxyphenyl)-pyrimidine-4-carboxylic acid methyl ester], the pest or weed control at 17.5 g/ha in assay [1] came to 100%; in the assay on VERPE = Veronica persica it was 99%; in assay [3], 80%; in assay [2] it was 0%.

`COC(=O)c1nc(-c2ccc(Cl)c(OC)c2F)nc(N)c1Br` [Compound 13, 6-amino-5-bromo-2-(4-chloro-2-fluoro-3-methoxyphenyl)-pyrimidine-4-carboxylic acid methyl ester]: the pest or weed control at 70 g/ha is 100% in assay [1] and 60% in assay [3]. The pest or weed control at 17.5 g/ha with VERPE = Veronica persica came to 95%; in assay [2] it was 0%.

As to `CCOc1c(Cl)ccc(-c2nc(N)c(Cl)c(C(=O)OC)n2)c1F` [Compound 1, 6-amino-5-chloro-2-(4-chloro-3-ethoxy-2-fluorophenyl)-pyrimidine-4-carboxylic acid methyl ester], the pest or weed control at 17.5 g/ha in assay [1] was 100%; in assay [3] it was 50%. Besides, the pest or weed control at 35 g/ha was 20% with VERPE = Veronica persica and 0% in assay [2].

Turning to `COC(=O)c1nc(-c2ccc(Cl)c(C(F)F)c2F)nc(N)c1Cl` [Compound 7, 6-Amino-5-chloro-2-(4-chloro-3-difluoromethyl-2-fluorophenyl)pyrimidine-4-carboxylic acid methyl ester], the values for the pest or weed control at 140 g/ha in assay [1] and in assay [3] were 100% and 90%, respectively. In addition, the pest or weed control at 17.5 g/ha in the assay with VERPE = Veronica persica is 95%; in assay [2], 15%.

In general, pest or weed control refers to the degree to which the test organism was suppressed or injured, in per cent. A higher pest or weed control goes with a strong effect.

These data come from patent US9199943B2, “2-(poly-substituted aryl)-6-amino-5-halo-4-pyrimidinecarboxylic acids and their use as herbicides” (Dow AgroSciences, LLC., priority 2006, dated 2015).
